Measured values reported in ChEMBL document CHEMBL1938289, “Facile synthesis of tetracyclic azepine and oxazocine derivatives and their potential as MAPKAP-K2 (MK2) inhibitors” (Bioorg Med Chem Lett, 2012).
Values after ≈ are worked out from the molar mass of the structure shown. Active and inactive are the calls of the source. The calls are words filed in the database; no cut-off is given here.

Key:
[1] = Kinetic solubility of the compound at pH 7.4; settings: buffer
[2] = target: T1, MAP kinase-activated protein kinase 2 (Homo sapiens, UniProt P49137); experiment: Inhibition of MK2 using TAMRA-labeled peptide as substrate pre-incubated for 30 mins prior substrate addition measured after 30 mins incubation in dark using fluorescence polarization assay
Target sequence in this assay (P49137 whole entry): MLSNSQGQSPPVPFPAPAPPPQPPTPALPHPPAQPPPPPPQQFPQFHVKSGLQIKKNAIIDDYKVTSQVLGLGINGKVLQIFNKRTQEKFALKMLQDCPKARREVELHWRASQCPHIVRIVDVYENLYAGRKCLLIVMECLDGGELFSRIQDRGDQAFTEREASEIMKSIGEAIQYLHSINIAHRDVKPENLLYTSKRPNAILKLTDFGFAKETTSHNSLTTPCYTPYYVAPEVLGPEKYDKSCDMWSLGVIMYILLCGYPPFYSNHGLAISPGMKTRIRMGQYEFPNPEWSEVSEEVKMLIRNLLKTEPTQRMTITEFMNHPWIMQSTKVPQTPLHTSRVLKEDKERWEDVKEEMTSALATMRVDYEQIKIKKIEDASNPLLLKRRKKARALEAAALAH

[3] = target: T1, MAP kinase-activated protein kinase 2; experiment: Inhibition of MK2-mediated HSP27 phosphorylation at Ser78 in LPS-stimulated human THP-1 cells pre-incubated for 60 mins before LPS treatment measured after 60 mins; type: cell-based
Target sequence in this assay (P49137 whole entry): as above

[4] = target: T1, MAP kinase-activated protein kinase 2; experiment: Noncompetitive inhibition of MK2 using TAMRA-labeled peptide as substrate
Target sequence in this assay (P49137 whole entry, looked up): as the sequence (P49137 whole entry) above

| solubility kinetic [1] | IC50 [2] | EC50 [3] | inhibition [4] | SMILES |
| --- | --- | --- | --- | --- |
| 10 µM (≈ 4.32 µg/mL) | 0.88 µM |  |  | Cc1nnc2n1-c1ccc(N3CCNCC3)cc1Cc1cc(-c3ccc(Cl)cc3)oc1-2 |
| 16 µM (≈ 6.54 µg/mL) | 0.0038 µM | 0.26 µM | Active | N#Cc1ccc(-c2cc3c(o2)-c2nncn2-c2ccc(N4CCNCC4)cc2C3)cc1 |
| < 16 µM | 0.0029 µM | 0.26 µM |  | N#Cc1ccc(-c2cc3c(o2)-c2nccn2-c2ccc(N4CCNCC4)cc2C3)cc1 |
| 38 µM (≈ 16.5 µg/mL) | 0.018 µM |  | Active | Clc1ccc(-c2cc3c(o2)-c2nccn2-c2ccc(N4CCNCC4)cc2OC3)cc1 |
| 20 µM (≈ 8.34 µg/mL) | 0.007 µM | 1.5 µM |  | Clc1ccc(-c2cc3c(o2)-c2nccn2-c2ccc(N4CCNCC4)cc2C3)cc1 |
| 33 µM (≈ 13.2 µg/mL) | 0.015 µM |  |  | Fc1ccc(-c2cc3c(o2)-c2nncn2-c2ccc(N4CCNCC4)cc2C3)cc1 |
|  | 0.0092 µM | 2.5 µM |  | Cc1cnc2n1-c1ccc(N3CCNCC3)cc1Cc1cc(-c3ccc(Cl)cc3)oc1-2 |
| 10 µM (≈ 4.18 µg/mL) | 0.0093 µM | 2.1 µM |  | Clc1ccc(-c2cc3c(o2)-c2nncn2-c2ccc(N4CCNCC4)cc2C3)cc1 |
|  | 0.11 µM |  |  | O=C1Nc2ccc(N3CCNCC3)cc2OCc2cc(-c3ccc(Cl)cc3)oc21 |
| > 200 µM |  |  |  | O=C(c1ccc(-c2ccc(Cl)cc2)o1)N(Cc1ccccn1)c1ccc(N2CCNCC2)cc1 |
